In patent US4487708A (priority 1981, dated 1984):

Columns and labels:
[1] = room temperature oxygen scavenging test (flask with dissolved oxygen probe); conditions: for % O2 Removed: 60 seconds; for % O2 Removed / % O2 Removed At 60 Seconds: 23-25 °C; for % O2 Removed At 60 Seconds: Table 11, hydroquinone 93 ppm; for % O2 Removed, 1 Minute: hydroquinone: pH 8.6, 22.5 °C, ratio 0.94, initial O2 7.7 ppm
[2] = oxygen scavenging efficacy at elevated temperature and pressure (hot water flow system)
Method: In a first series of tests, the oxygen scavenging efficacies of various materials were evaluated under conditions of elevated temperature and pressure. The test apparatus used was essentially a stainless steel hot water flow system equipped with appropriate monitoring instrumentation. Demineralized feedwater, adjusted to the appropriate pH and initial dissolved oxygen level (controlled by nitrogen sparging), was pumped from a reservoir at ambient temperature into a once-through heater. Temperature was monitored continuously by means of thermocouples at several locations along the length of the flow tubing. A solution containing the oxygen scavenger test material was loaded into a pump driven syringe and fed continuously to the heated flow stream through a port containing a stainless steel ribbon mixing baffle. The feedwater containing dissolved oxygen and the test material then traversed the flow tubing via a by-pass comprising an additional length of coiled tubing. Contact (or reaction) time of the test material and dissolved oxygen was governed by the choice of coil length. The tendency of the temperature to drop during residence in the coiled tubing was offset by the use of thermostatted heating tapes which maintained the temperature in this tubing at 78±3° C. Upon exiting the coiled tubing, the stream flowed through a sample cooler to render the temperature of the liquid compatible with the operating range of a membrane-type dissolved oxygen probe. The cooled liquid was analyzed for dissolved oxygen via a D.O. flow cell, and pH was potentiometrically monitored in the flow tube immediately downstream of the D.O. probe. Outputs of the temperature, pH and dissolved oxygen probes during operation were monitored via strip chart recorders. The final destination of the reaction mixture was a reservoir which could be drained for analysis of reaction products, if desired.
Temperature in the system could be maintained at 78±3+ C. under 4±1 psig. Residence time of the feedwater in the flow tube from chemical feed point to D.O. flow cell outlet was 4±0.2 minutes. Approximately 3.5 minutes of this total was spent in a 40' length of 0.402 inch i.d. coiled tubing. Entry into and residence in the sample cooler accounted for 0.5 minute of the total contact time.
According to an article by J. W. Cohn and R. E. Powell, Jr., J. Amer.
The test solutions were prepared by initially mixing 10 grams of test material and 90 grams of demineralized water in glass bottles and allowing the mixture to remain in a shaker for several hours. If complete dissolution for a given material was observed after shaking, the pH of the solution was measured. When the pH of the solution was below 10.0, 7N sodium hydroxide was added dropwise until this value was reached. The quantity of added sodium hydroxide was recorded and later used in corrections for the active concentration of the solution. When the pH value of a stock solution was above pH 10.0 without requiring the addition of caustic, the solution was not further modified.
Results of these tests are reported in TABLE 1 below in terms of percent oxygen removed from the test stream. The precision of the initial and final dissolved oxygen values reported is approximately ±10%. […] The experimental uncertainties decrease with increasing values of percent dissolved oxygen removal.
The specific experimental conditions were:
Reaction Time=240±10 seconds

[3] = for mu-amine required to effect dissolution: saturated solution, 10.0 g hydroquinone (6.3 + 3.7 g) in 89.5 g water
Method: Volumes of mu-amines required to effect dissolution were recorded and converted to weights via density.

[4] = thermal stability of amines / dioxo aromatic compounds (no method given); assay type: physicochemical; conditions: of the amines tested
[5] = dissolution and storage stability of hydroquinone/methoxypropylamine solutions; assay type: physicochemical
Method: The following 25 gram solutions were prepared and sealed in glass bottles (components listed in order of addition):
Fifty (50) grams of each of the following solutions were prepared in glass bottles, sealed and placed on a shaker for two hours: […]

[6] = cited from earlier work
[7] = compatibility of neutralizing amines with hydroquinone in solution; assay type: physicochemical; conditions: combined with hydroquinone
Description: To provide convenient single-drum treatments, it was decided to test-formulate various dioxo aromatic compounds with neutralizing amines.

[8] = cited from earlier work; remark: listed apart in the source
[9] = oxygen removal from feedwater of a working boiler (Example 2)
Method: In order to compare the performance of hydroquinone with that of hydrazine under field-type conditions, a series of experiments were conducted on the feedwater of a working boiler. The test materials were fed to the deaerator storage tank, and the resultant change, if any, in dissolved oxygen level was measured on a sample flowing from the feedwater line through a membrane-type dissolved oxygen probe.
During the tests, a relatively wide range of experimental conditions was encountered among the test parameters, reflecting the difficulty of attempting to obtain precise data during experiments performed on a working boiler.
In order to provide some point of reference for judging oxygen scavenging efficacies while taking into account the diverse conditions experienced on a daily basis, hydrazine control runs were performed, whenever possible, under feedwater and boiler conditions similar to those encountered during testing of other test materials. The hydrazine control runs are reported below in Table 3, also in terms of % oxygen removal.

[10] = Table 8, mu-amine combined with hydroquinone, 103 ppm each, final pH 9.3-10.5
[11] = Table 10, mu-amine combined with hydroquinone, 6.7 ppm each, 78±1 °C, 3-5 psig, 240±10 seconds, final pH 9.7, initial O2 1.0-1.5 ppm
[12] = stock mu-amine 1.5 / hydroquinone 10.0 wt. %, HQ:mu-amine 6.67:1
[13] = stock mu-amine 90.0 / hydroquinone 10.0 wt. %, HQ:mu-amine 1:9
[14] = stock mu-amine 99.0 / hydroquinone 1.0 wt. %, HQ:mu-amine 1:99
[15] = Table 1, 78±3 °C, 4±1 psig, contact 4±0.2 min, feedwater 58-100 ppm, pH 8.9-10.9, initial O2 1.8-2.3 ppm, hydrazine average of 9 runs, values below 20% may be artifacts
[16] = 6.3 g hydroquinone in 89.5 g demineralized water
[17] = Table 5, hydrazine: pH 9.2, 26.5 °C, ratio 10.5, initial O2 0.87 ppm
[18] = Table 9, mu-amine combined with hydroquinone, about 30 ppm / 10 ppm, 78±1 °C, 3-5 psig, 240±10 seconds, final pH 10.3, initial O2 500-750 ppb

NCCNCCNCCN [Triethylenetetramine]
% O2 Removed [1, 10]: 89%

COCCCN [Methoxypropylamine]
% O2 Removed [2, 11]: 99% | MOPA required to dissolve hydroquinone ([3]; 10.0 g hydroquinone, neat MOPA): 12.5 grams | mu-amine required to effect dissolution [3]: 1.7 grams | thermal stability [4]: most thermally stable of the amines tested | % O2 Removed At 60 Seconds [1, 12]: 96% | % O2 Removed At 60 Seconds ([1]; stock mu-amine 2.0 / hydroquinone 10.0 wt. %, HQ:mu-amine 5:1): 96% | % O2 Removed At 60 Seconds ([1]; stock mu-amine 3.0 / hydroquinone 10.0 wt. %, HQ:mu-amine 3.33:1): 96% | % O2 Removed At 60 Seconds ([1]; stock mu-amine 15.0 / hydroquinone 15.0 wt. %, 1:1): 95% | % O2 Removed At 60 Seconds ([1]; stock mu-amine 20.0 / hydroquinone 20.0 wt. %, 1:1): 98% | % O2 Removed At 60 Seconds ([1]; stock mu-amine 30.0 / hydroquinone 30.0 wt. %, 1:1): 98% | % O2 Removed At 60 Seconds ([1]; stock mu-amine 40.0 / hydroquinone 40.0 wt. %, 1:1): 94% | % O2 Removed At 60 Seconds [1, 13]: 94% | % O2 Removed At 60 Seconds [1, 14]: 96% | % O2 Removed ([1]; Table 12, methoxypropylamine 1.0 / hydroquinone 1.0 wt. %, final pH 8.5): 10% | % O2 Removed ([1]; Table 12, methoxypropylamine 1.0 / hydroquinone 6.0 wt. %, final pH 8.4): 78% | % O2 Removed ([1]; Table 12, methoxypropylamine 3.0 / hydroquinone 3.0 wt. %, final pH 8.9): 74% | % O2 Removed ([1]; Table 12, methoxypropylamine 6.0 / hydroquinone 1.0 wt. %, final pH 9.0): 17% | % O2 Removed ([1]; Table 12, methoxypropylamine 6.0 / hydroquinone 6.0 wt. %, final pH 9.0): 93% | lowest practical MOPA concentration in the mixture ([5]; 10% hydroquinone aqueous solution): 2%

Oc1ccc(O)cc1 [hydroquinone]
% O2 Removed [2, 15]: 97% | dissolution time, solution #1 [3, 16]: 23 min | dissolution time, solution #2 [3, 16]: 19 min | dissolution time, solution #3 [3, 16]: 21 min | % O2 Removed, 1 Minute [1, 17]: 29% | % O2 Removed ([1]; Table 12, mu-amine 0 / hydroquinone 1.0 wt. %, final pH 8.1): 9% | % O2 Removed ([1]; Table 12, mu-amine 0 / hydroquinone 3.0 wt. %, final pH 8.0): 17% | % O2 Removed ([1]; Table 12, mu-amine 0 / hydroquinone 6.0 wt. %, final pH 7.9): 27% | active hydroquinone concentration of stable aqueous solution ([5]; 1 to 1 with methoxypropylamine (40%), sealed storage for 12 days): up to 40% | aqueous solubility (accepted literature value) ([6]; 25 °C): ~7% | solubility in water ([6]; hydroquinone alone): about 7%

CC(C)(C)N [tert-Butylamine]
compatibility with hydroquinone in solution [7]: insoluble mass

CN(C)CCCN [Dimethylaminopropylamine]
mu-amine required to effect dissolution [3]: 1.7 grams | % O2 Removed [1, 10]: 76% | % O2 Removed At 60 Seconds [1, 12]: 94% | % O2 Removed At 60 Seconds ([1]; stock mu-amine 30.0 / hydroquinone 10.0 wt. %, HQ:mu-amine 1:3): 99% | % O2 Removed At 60 Seconds [1, 13]: 98% | % O2 Removed At 60 Seconds [1, 14]: 50%

NCCN [Ethylenediamine]
% O2 Removed [2, 18]: 99% | % O2 Removed [1, 10]: 85%

C1COCCN1 [Morpholine]
compatibility with hydroquinone in solution [7]: precipitated out of solution

Nc1ccccc1N [o-phenylenediamine, reference compound]
% O2 Removed [2, 15]: 10%

Nc1ccc(N)cc1 [p-phenylenediamine, reference compound]
% O2 Removed [2, 15]: 35%

NC1CCCCC1 [Cyclohexylamine]
compatibility with hydroquinone in solution [7]: precipitated out of solution

NN [hydrazine]
pH of maximum oxygen scavenging efficacy ([8]; Cohn and Powell 1954): 10.0-10.5 pH | decomposition temperature ([8]; forms ammonia): Above 400 ° F. | rate of reaction with oxygen ([8]; low temperatures, such as room temperature): very slow at low temperatures | % O2 Removed ([9]; Table 3, control run 1, 1.6 ppm actives, pH 8.8, steam load 11, initial O2 13.0 ppb): 69% | % O2 Removed ([9]; Table 3, control run 2, 1.1 ppm actives, pH 9.4, steam load 15, initial O2 4.0 ppb): 50% | % O2 Removed ([9]; Table 3, control run 3, 1.2 ppm actives, pH 8.6, steam load 15, initial O2 6.0 ppb): 60% | % O2 Removed ([9]; Table 3, control run 4, 1.0 ppm actives, pH 8.8, steam load 15, initial O2 5.8 ppb): 55% | % O2 Removed ([9]; Table 3, control run 5, 0.8 ppm actives, pH 9.4, steam load 11, initial O2 3.5 ppb): 31% | % O2 Removed ([9]; Table 3, control run 6, 1.6 ppm actives, pH 9.6, steam load 14, initial O2 4.0 ppb): 30% | % O2 Removed, 5 Minutes [1, 17]: 2% | % O2 Removed, 1 Minute [1, 17]: 1%

Dimethyl(iso)propanolamine
% O2 Removed [2, 18]: 98% | % O2 Removed [1, 10]: 73%

NCCO [Monoethanolamine]
% O2 Removed [1, 10]: 75%

CC(O)CNCC(C)O (stereo not drawn) [Diisopropanolamine]
% O2 Removed [1, 10]: 86%

CCC(C)N (stereo not drawn) [sec-Butylamine]
% O2 Removed [1, 10]: 74% | compatibility with hydroquinone in solution [7]: compatible with hydroquinone in solution

Oc1cccc(O)c1 [resorcinol, reference compound]
% O2 Removed [2, 15]: 0%

CC(O)CN (stereo not drawn) [Monoisopropanolamine]
% O2 Removed [2, 11]: 98%
